The source of these data is US9765035B2 (priority 2013, dated 2017).

The structures appear in SMILES notation. Where two headings read alike, the source gives them in different places.

Test [1] has as its target T1, human PRMT1 (Homo sapiens, UniProt Q99873).
T1 construct: GST-tagged PRMT1; made in house; host or cells: High Five insect cells (baculovirus)
Put plainly: biochemical.

In test [2] the test system is RKO cells, mono-methyl arginine. Kind of test: RKO Methylation Assay (In Cell Western for mono-methyl arginine). The format is cell-based. Particulars: Homo sapiens.
Setting [3] is: biochemical evaluation, peptide substrate, read-out: PRMT1 IC50.
The mark [4] stands for this setting: single experiment or average of multiple experiments, read-out: PRMT1 biochemical evaluation (numerical).
Where [5] appears, read: In Cell Western EC30, RKO cells, 72 hours, single experiment or average of multiple experiments, read-out: RGG ICW.
The mark [6] stands for this setting: In Cell Western, RKO cells, 72 hours, read-out: RGG ICW EC30.

T1 sequence (Q99873 other isoform, or with tags, fused parts or gaps): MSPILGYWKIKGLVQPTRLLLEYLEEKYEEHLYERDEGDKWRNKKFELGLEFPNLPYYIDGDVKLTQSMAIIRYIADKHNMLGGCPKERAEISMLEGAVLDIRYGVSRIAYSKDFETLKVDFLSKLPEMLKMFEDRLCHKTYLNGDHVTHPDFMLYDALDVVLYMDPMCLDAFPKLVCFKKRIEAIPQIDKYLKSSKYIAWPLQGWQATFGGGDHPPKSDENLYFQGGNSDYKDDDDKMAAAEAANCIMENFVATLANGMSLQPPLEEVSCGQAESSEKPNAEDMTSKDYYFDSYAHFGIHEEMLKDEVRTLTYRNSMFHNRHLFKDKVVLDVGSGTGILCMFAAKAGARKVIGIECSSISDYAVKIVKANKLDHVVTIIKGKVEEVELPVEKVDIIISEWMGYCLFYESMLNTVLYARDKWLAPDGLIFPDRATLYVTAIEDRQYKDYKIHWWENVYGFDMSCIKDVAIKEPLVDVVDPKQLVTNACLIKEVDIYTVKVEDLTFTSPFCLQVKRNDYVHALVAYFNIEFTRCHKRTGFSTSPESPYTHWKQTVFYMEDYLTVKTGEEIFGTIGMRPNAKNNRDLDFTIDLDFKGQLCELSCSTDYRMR

As for `CNCCN(C)Cc1nn(C2CCN(C(C)=O)CC2)c2ccc(OCc3ccc(C#N)cc3)cc12` [Compound 38], the IC50 was 3.01 to 10 µM in test [1] (setting [3]) and 0.552 µM in test [1] (setting [4]). For the same molecule, the EC30 in test [2] (setting [5]) was above 20 µM; in test [2] (setting [6]), above 12 µM.

In the case of `CNCCN(C)Cc1n[nH]c2ccc(OC3CCCC3)cc12` [Compound 11], the IC50 in test [1] (setting [3]) was below 0.1 µM; in test [1] (setting [4]), 0.0033 µM. In addition, the results for the EC30 in test [2] (setting [5]) and in test [2] (setting [6]) were 0.724 µM and below 3 µM, respectively.

With `CNCCN(C)Cc1n[nH]c2ccc(OCCC(C)C)cc12` [Compound 8], the IC50 was below 0.1 µM in test [1] (setting [3]) and 0.00783 µM in test [1] (setting [4]). Moreover, the EC30 is 0.93 µM in test [2] (setting [5]) and below 3 µM in test [2] (setting [6]).

Regarding `CNCCN(C)Cc1n[nH]c2ccc(OC3CCCCC3)cc12` [Compound 18], the results for the IC50 in test [1] (setting [3]) and in test [1] (setting [4]) were below 0.1 µM and 0.0402 µM, respectively. For the same molecule, the EC30 in test [2] (setting [5]) is 0.582 µM; in test [2] (setting [6]) it was below 3 µM.

With `CNCCN(C)Cc1n[nH]c2ccc(O)cc12` [Compound 36, 3-((methyl(2-(methylamino)ethyl)amino)methyl)-1H-indazol-5-ol], the IC50 in test [1] (setting [3]) is 0.101 to 1 µM; in test [1] (setting [4]), 6.76 µM. For the same molecule, the EC30 in test [2] (setting [5]) is above 20 µM; in test [2] (setting [6]), above 12 µM.

Consider `CNCCN(C)Cc1n[nH]c2ccc(Oc3ccccc3Cl)cc12` [Compound 30], for which the IC50 in test [1] (setting [3]) is below 0.1 µM; in test [1] (setting [4]), 0.0645 µM. The EC30 is 7.2 µM in test [2] (RKO, 72 h, read-out: RGG ICW) and 3.01 to 12 µM in test [2] (RKO, 72 h, read-out: RGG ICW EC30).
